Measurements as given in paper PMC10762035, “Molecular basis of human trace amine-associated receptor 1 activation” (Nature Communications, 2024).
Where a chain is given by its changes, count along the chain named. Values joined by “and” are separate entries in the source; they are usually repeats but may differ in a detail not shown here. Identical values can stand only once. Like-named read-outs stand apart in the source and are kept apart here.

Legend:
Assay type in all cases: cell-based
hTA1 V184P = biological target: T1, hTA1 V184P (Homo sapiens, UniProt Q96RJ0, V184P); assay: GloSensor cAMP accumulation assay, V184P mutant; conditions: for cAMP accumulation response, single replicate values (source data, Supplementary Figure 5): hTA1 V184P (N=2), log[Compound]
T1 construct: expressed in transfected cells; host or cells: HEK293T
T1 sequence (Q96RJ0 1-339 V184P): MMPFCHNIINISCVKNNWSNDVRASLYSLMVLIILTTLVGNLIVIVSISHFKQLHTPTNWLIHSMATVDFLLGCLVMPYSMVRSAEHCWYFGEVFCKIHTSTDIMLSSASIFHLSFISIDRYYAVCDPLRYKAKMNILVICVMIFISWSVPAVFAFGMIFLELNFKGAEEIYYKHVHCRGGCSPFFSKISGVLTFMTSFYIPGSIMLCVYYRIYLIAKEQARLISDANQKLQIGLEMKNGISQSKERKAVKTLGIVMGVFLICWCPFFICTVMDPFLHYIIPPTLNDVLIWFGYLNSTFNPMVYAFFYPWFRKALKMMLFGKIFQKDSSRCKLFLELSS

hTA1 = biological target: T2, hTA1 (Homo sapiens, UniProt Q96RJ0); assay: GloSensor cAMP accumulation assay, concentration response, wild-type hTA1 in transfected HEK293T cells; conditions: for Emax: HEK-293T;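 for all read-outs here: luminescence read after 30 min compound exposure at room temperature in cells preloaded with D-Luciferin, reflecting Gs-driven cAMP rise, efficacy scaled to the maximal β-PEA response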
T2 construct: expressed in transfected cells; host or cells: HEK293T
T2 sequence (Q96RJ0 1-339): T1 sequence (Q96RJ0 1-339 V184P) with P184V

hTA1 C88/178S = biological target: T3, hTA1 C88/178S (Homo sapiens, UniProt Q96RJ0, C178S/C88S); assay: GloSensor cAMP accumulation assay, C88S/C178S double mutant; conditions: C88S, C178S; each row is one independent experiment, 3 replicates
T3 construct: expressed in transfected cells; host or cells: HEK293T
T3 sequence (Q96RJ0 1-339 C88S/C178S): T1 sequence (Q96RJ0 1-339 V184P) with C88S, C178S, P184V

CCC(CC1COC(N)=N1)c1ccccc1 (stereo not shown) [Ro5256390]
cAMP accumulation response, single replicate values (source data, Supplementary Figure 5) (hTA1 V184P; M = -5): 85.3904 and 101.684 and 66.3809 and 100.697 and 92.817 and 97.6917 | cAMP accumulation response, single replicate values (source data, Supplementary Figure 5) (hTA1 V184P; M = -5.522): 66.0899 and 55.7123 and 71.6182 and 88.7852 and 51.5463 and 90.3979 | cAMP accumulation response, single replicate values (source data, Supplementary Figure 5) (hTA1 V184P; M = -6): 83.0627 and 77.3404 and 73.6549 and 87.3191 and 55.1749 and 91.0943 | cAMP accumulation response, single replicate values (source data, Supplementary Figure 5) (hTA1 V184P; M = -6.522): 79.7651 and 75.3037 and 85.0024 and 81.1248 and 49.1639 and 85.8896 | cAMP accumulation response, single replicate values (source data, Supplementary Figure 5) (hTA1 V184P; M = -7): 89.6578 and 72.685 and 93.7313 and 87.2824 and 64.0448 and 74.7473 | cAMP accumulation response, single replicate values (source data, Supplementary Figure 5) (hTA1 V184P; M = -7.522): 94.3132 and 66.4779 and 74.3338 and 84.4969 and 64.0814 and 78.046 | cAMP accumulation response, single replicate values (source data, Supplementary Figure 5) (hTA1 V184P; M = -8): 62.0164 and 54.6454 and 40.6793 and 78.3026 and 66.3539 and 77.7161 | cAMP accumulation response, single replicate values (source data, Supplementary Figure 5) (hTA1 V184P; M = -8.522): 37.1877 and 24.6764 and 37.2847 and 29.115 and 34.8328 and 41.87 | cAMP accumulation response, single replicate values (source data, Supplementary Figure 5) (hTA1 V184P; M = -9): 15.9475 and 18.9541 and 11.3891 and 32.8169 and 25.9629 and 26.2194 | cAMP accumulation response, single replicate values (source data, Supplementary Figure 5) (hTA1 V184P; M = -9.522): 4.018 and 3.436 and 4.212 and 11.3752 and 7.6 and 9.799 | cAMP accumulation response, single replicate values (source data, Supplementary Figure 5) (hTA1 V184P; M = -10): 0.7205 and 0.9145 and 0.5265 and 3.678 and 2.945 and 4.778 | cAMP accumulation response, single replicate values (source data, Supplementary Figure 5) (hTA1 V184P; M = -10.522): -0.3463 and -0.9283 and 0.2356 and 0.1229 and 0.08625 and 0.5627 | cAMP accumulation response, single replicate values (source data, Supplementary Figure 5) (hTA1 V184P; M = -11): -1.316 (2×) and -1.4132 and 1.516 and -0.5368 and 1.039 | cAMP accumulation response, single replicate values (source data, Supplementary Figure 5) (hTA1 V184P; M = -11.522): -1.51 and -1.219 and -1.704 and 2.615 and 1.516 and 1.552 | cAMP accumulation response, single replicate values (source data, Supplementary Figure 5) (hTA1 V184P; M = -12): -1.316 and -1.51 and -1.801 and 15.6269 and 16.9097 and 12.5114 | cAMP accumulation response, single replicate values (source data, Supplementary Figure 5) (hTA1 V184P; M = -12.522): -1.4132 and -1.51 and -0.9283 and 2.505 and 1.149 and 1.736 | ΔpEC50 values (each mutant value - WT average), Mean (hTA1 V184P; hTA1 V184P mutant minus WT average): 0.1338 and 0.2823 | Emax values, Mean (hTA1 V184P; hTA1 V184P mutant, β-PEA set to 100, each grid row a separate experiment, 3 replicates): 78.2024 | EC50 (hTA1 V184P; pEC50 values (Mean), hTA1 V184P mutant, Figure 3B source data, each grid row a separate experiment, 3 replicates): 3.92 nM and 2.79 nM | EC50 (hTA1 V184P; pEC50 ± SEM, V184P, n=2): 3.31 nM | Emax (hTA1 V184P; read-out: Emax values (Mean), hTA1 V184P mutant, β-PEA set to 100, each grid row a separate experiment, 3 replicates): 81.5% | Emax (hTA1 V184P; read-out: Span ± SEM (Emax normalized to β-PEA), V184P, n=2): 79.8 ± 1.63% | EC50 (hTA1; EC50, wt hTA1, HEK293T, n=3): 5.33 nM and 5.3 nM | Emax (hTA1; read-out: Emax values (Mean), WT hTA1, β-PEA = 100, each line an independent experiment, 3 replicates): 105% | Emax (hTA1; wt hTA1, relative to β-PEA): 103% | Emax values, Mean (hTA1; WT hTA1, β-PEA = 100, each line an independent experiment, 3 replicates): 101.582 | Emax values, Avg (hTA1; WT, average of the experiments, β-PEA = 100): 103.3 | Emax values, Avg (hTA1; WT, average of the two experiments): 103.3 | Emax values, Mean (hTA1; WT, mean of each independent experiment (3 replicates), β-PEA = 100): 105.026 and 101.582 | Emax values, Mean (hTA1; WT, single experiments (3 replicates each), β-PEA = 100): 105.026 and 101.582 | EC50 (hTA1; pEC50 values (Mean), WT hTA1, each line an independent experiment, 3 replicates, Figure 2B source data): 4.28 nM and 6.65 nM | EC50 (hTA1; pEC50 ± SEM, wt hTA1, HEK293T, n=3): 5.37 nM | ΔEmax values (each mutant value - WT average), Mean (hTA1 C88/178S): 2.588 and 13.0349 | ΔpEC50 values (each mutant value - WT average), Mean (hTA1 C88/178S): -0.3451 and 0.337
